Experimental findings from patent publication US8022066B2, “2-(2-hydroxyphenyl) benzothiadiazines useful for treating obesity and diabetes” (High Point Pharmaceuticals, LLC, priority 2006, dated 2011) are described below.

By melting point is commonly meant the temperature of the solid-liquid transition. For `Cc1c(Br)cc(C(C)(C)C)c(O)c1C1=Nc2cc(Cl)ccc2S(=O)(=O)N1` [Example 1, 4-Bromo-6-tert-butyl-2-(6-chloro-1,1-dioxo-1,2-dihydro-1λ^6-benzo[1,2,4]thiadiazin-3-yl)-3-methylphenol], the melting point is 270 to 271 °C (dec.).
